This note sets out measurements from paper PMC5653977 (EMBO Molecular Medicine, 2017).

Counter-ions that a name gives are not always drawn. Where a SMILES comes first, the peptide text is derived from it. [ ]: non-standard residue; d: D form. pGlu = O=C1CC[C@@H](C(=O)O)N1; Thz = O=C(O)[C@@H]1CSCN1

The test system of the first assay is NRG1-ERBB4 signaling. The experiment in a line: Nrg1-ERBB4-PIK3R1 split TEV co-culture compound screen of the NIH Clinical Collection. Format: cell-based, human.
Conditions: not given
As to `CC(C)c1cccc(C(C)C)c1O` [Propofol, reference compound], the Z-SCORE is listed as -0.98.

The assay is the same for the next values; noted with them: NIH Clinical Collection NCC-003 raw data; compounds ranked by Z-score; 'flagged' given instead of a Z-score.
In the case of `O=c1c(-c2ccccc2)c1-c1ccccc1` [diphenylcyclopropenone], the Z-SCORE result is on record as “flagged”. As to `O=C1CC[C@@H](C(=O)N2CSC[C@H]2C(=O)O)N1` [PIDOTIMOD] ([pGlu]-[Thz]-OH), the Z-SCORE is -1.2.

`CC(C)CC(N(C)C)C1(c2ccc(Cl)cc2)CCC1.Cl` (stereo not drawn) [SIBUTRAMINE HCl] displayed a Z-SCORE of -1.35.

On to `CC[C@]1(O)C[C@H]2CN(CCc3c([nH]c4ccccc34)[C@@](C(=O)OC)(c3cc4c(cc3OC)N(C=O)[C@H]3[C@@](O)(C(=O)OC)[C@H](OC(C)=O)[C@]5(CC)C=CCN6CC[C@]43[C@@H]65)C2)C1` [VINCRISTINE SULFATE], for which the Z-SCORE result was “flagged”. In the case of `OCc1cccnc1` [3-PYRIDINEMETHANOL], the Z-SCORE is -1.1.

On to `COc1cccc2c1C(=O)c1c(O)c3c(c(O)c1C2=O)C[C@@](O)(C(=O)CO)C[C@@H]3O[C@H]1C[C@H](N)[C@H](O)[C@H](C)O1` [DOXORUBICIN HYDROCHLORIDE], for which the Z-SCORE result is given as “flagged”. `COc1ccc(CN2CCN(C(c3ccc(F)cc3)c3ccc(F)cc3)CC2)c(OC)c1OC.Cl.Cl` [LOMERIZINE DiHCl] came in with a Z-SCORE of -1.48. As to `O=C1Nc2ccc(Cl)cc2[C@@](C#CC2CC2)(C(F)(F)F)O1` [EFAVIRENZ], the Z-SCORE result was “flagged”. Consider `COC(=O)C1=C(C)NC(C)=C(C(=O)O[C@@H]2CCCN(Cc3ccccc3)C2)[C@@H]1c1cccc([N+](=O)[O-])c1.Cl` (racemic) [BENIDIPINE HCl], for which the Z-SCORE is reported as -1.41. Compound `O=C1CCc2ccc(OCCCCN3CCN(c4cccc(Cl)c4Cl)CC3)cc2N1` [ARIPIPRAZOLE] displayed a Z-SCORE of -1.84. `Nc1nc(N)nc(-c2cc(Cl)ccc2Cl)n1` [IRSOGLADINE MALEATE] returned a Z-SCORE of -1.2.

The assay is the same for the next values; noted with them: compound screen of the NIH Clinical Collection, sheet raw data NCC-003; compounds ranked by Z-score.
As to `Cc1nc2ccc(CN(C)c3ccc(C(=O)N[C@@H](CCC(=O)O)C(=O)O)s3)cc2c(=O)[nH]1` [RALTITREXED], the Z-SCORE was -0.52. On the same count and under the same terms, the result for `NC1CCN(c2nc3c(cc2F)c(=O)c(C(=O)O)cn3-c2ccc(F)cc2F)C1` (stereo not drawn) [TOSUFLOXACIN TOSYLATE] reads 0.08. For `Cc1[nH]cnc1CN1CCc2c(c3ccccc3n2C)C1=O` [ALOSETRON HCl], the Z-SCORE was 0.99. On to `CCCN[C@H]1CCc2nc(N)sc2C1` [Pramipexole], for which the Z-SCORE is listed as -0.29.

`CN1[C@@H]2CC[C@H]1C[C@@H](OC(=O)c1c[nH]c3ccccc13)C2` [TROPISETRON HCl] gave a Z-SCORE of 0.72. With `COc1ccc(-c2oc3c(CC=C(C)C)c(O[C@@H]4O[C@H](CO)[C@@H](O)[C@H](O)[C@H]4O)cc(O)c3c(=O)c2O[C@@H]2O[C@@H](C)[C@H](O)[C@@H](O)[C@H]2O)cc1` [ICARIIN], the Z-SCORE is -0.37. In turn, `CC(=O)Oc1ccccc1C(=O)Nc1ncc([N+](=O)[O-])s1` [NITAZOXANIDE] returned a Z-SCORE of 1.04. Compound `c1cncc([C@@H]2CCCN2)c1` [Nornicotine] registered a Z-SCORE of 0.27. Compound `COCCCC/C(=N\OCCN)c1ccc(C(F)(F)F)cc1` [Fluvoxamine] gave a Z-SCORE of -0.2.

Take `CN(C)CCOC(C)(c1ccccc1)c1ccccn1.O=C(O)CCC(=O)O` (stereo not drawn) [Doxylamine succinate salt]: the Z-SCORE came out at 0.36. Same read-out and setting: as for `Cc1occc(=O)c1O` [118-71-8], the figure is 0.13.

Compound `CC(=O)Nc1ccc(CC(=O)O)cc1` [ACTARIT] showed a Z-SCORE of -0.12. With `CN(C/C=C/C#CC(C)(C)C)Cc1cccc2ccccc12` [TERBINAFINE HCl], the Z-SCORE is recorded as -0.44.

In turn, `Cc1onc(-c2ccccc2)c1-c1ccc(S(N)(=O)=O)cc1` [VALDECOXIB] came in with a Z-SCORE of 0.19.

In turn, `FC(F)(F)c1cccc(N2CCNCC2)c1` [TFMPP] gave a Z-SCORE of 1.34.

`CCCCc1oc2ccccc2c1C(=O)c1cc(I)c(OCCN(CC)CC)c(I)c1` [AMIODARONE HYDROCHLORIDE] returned a Z-SCORE of -0.19. On to `CN[C@H]1CC[C@@H](c2ccc(Cl)c(Cl)c2)c2ccccc21` [Sertraline, reference compound], for which the Z-SCORE is listed as -0.03. On to `O=C(CCNNC(=O)c1ccncc1)NCc1ccccc1` [NIALAMIDE], for which the Z-SCORE is recorded as 1.7. `O=C1N[C@H](C(=O)O)CS1` yielded a Z-SCORE of 0.84.

`CN1CCC(=C2c3ccccc3CC(=O)c3sccc32)CC1` [KETOTIFEN FUMARATE] displayed a Z-SCORE of -0.37. `COc1cc(N)c(Cl)cc1C(=O)NC1CCN(CCCOc2ccc(F)cc2)CC1OC` (stereo not drawn) [Cisapride] yielded a Z-SCORE of -0.15. In turn, `CNNCc1ccc(C(=O)NC(C)C)cc1` [PROCARBAZINE HYDROCHLORIDE] had a Z-SCORE of 0.52. As to `CCC(C)(C)NC(=Nc1cccnc1)NC#N`, the Z-SCORE was found to be 0.49.

Regarding `COc1cc2nc(N3CCN(C(=O)C4CCCO4)CC3)nc(N)c2cc1OC` (stereo not drawn) [Terazosin, reference compound], the Z-SCORE was -0.8. `COCCCOc1ccnc(C[S+]([O-])c2nc3ccccc3[nH]2)c1C` (stereo not drawn) [RABEPRAZOLE] displayed a Z-SCORE of -0.02. The compound `Cl.Cn1c(NCCN(CCO)CCCc2ccc([N+](=O)[O-])cc2)cc(=O)n(C)c1=O` [NIFEKALANT HCl] showed a Z-SCORE of 1.92.

In turn, `Cc1cccc(C)c1NC(=O)C(C)N` (stereo not drawn) [TOCAINIDE] showed a Z-SCORE of -0.41.

`Cc1nc2ccccn2c(=O)c1CCN1CCC(C(=O)c2ccc(F)cc2)CC1` [PIRENPERONE] came in with a Z-SCORE of 1.82. `COc1c(N2C[C@@H]3CCCN[C@@H]3C2)c(F)cc2c(=O)c(C(=O)O)cn(C3CC3)c12` [MOXIFLOXACIN HCl] yielded a Z-SCORE of -0.35. The compound `CC(C(=O)O)c1ccc(CC2CCCC2=O)cc1` (stereo not drawn) [LOXOPROFEN SODIUM] displayed a Z-SCORE of 0.32. In the case of `CN(C)CCC(c1ccc(Cl)cc1)c1ccccn1` (stereo not drawn) [Chlorpheniramine], the Z-SCORE is -0.07. With `C[C@H]1O[C@H](O[C@H]2[C@H](O)[C@@H](O)[C@@H](O[C@H]3[C@H](O)[C@@H](O)C(O)O[C@@H]3CO)O[C@@H]2CO)[C@H](O)[C@@H](O)[C@@H]1N[C@H]1C=C(CO)[C@@H](O)[C@H](O)[C@H]1O` (stereo partly drawn) [ACARBOSE], the Z-SCORE was -0.8.

`COc1ccc2[nH]c([S+]([O-])Cc3ncc(C)c(OC)c3C)nc2c1` (stereo not drawn) [OMEPRAZOLE] gave a Z-SCORE of -0.26.

The assay is the same for the next values; noted with them: compounds at 10 μM, 24 h; PC12 split TEV assay cells co-cultured with Nrg1-expressing PC12 cells; analysed with cellHTS2.
Take `Oc1c(Cl)cc(Cl)c(Cl)c1Cc1c(O)c(Cl)cc(Cl)c1Cl` [Hexachlorophene, reference compound]: the Z-SCORE result is “flagged”. On the same count and under the same terms, as for `c1ccc(CC2=NCCN2)cc1` [Priscoline, reference compound], the figure is 1.86; as for `CO[C@H]1/C=C/O[C@@]2(C)Oc3c(C)c(O)c4c(O)c(c(/C=N/N5CCN(C)CC5)c(O)c4c3C2=O)NC(=O)/C(C)=C\C=C\[C@H](C)[C@H](O)[C@@H](C)[C@@H](O)[C@@H](C)[C@H](OC(C)=O)[C@@H]1C` [RIFAMPICIN, reference compound], -0.22. Still for that read-out and setting: as for `Cc1ccc(Cl)c(Nc2ccccc2C(=O)O)c1Cl` [Meclomen, reference compound], the figure is -0.25; as for `CN1CCN(C(=O)O[C@H]2c3nccnc3C(=O)N2c2ccc(Cl)cn2)CC1` [Eszopiclone, reference compound], 0.38.

`CN(C)CCC=C1c2ccccc2CCc2ccccc21.Cl` [Annoyltin, reference compound]: the Z-SCORE was found to be 0.33. As for `Cl.NCC(O)c1ccc(O)c(O)c1` (racemic) [(+/-)-NOREPINEPHRINE HYDROCHLORIDE, reference compound], the Z-SCORE is 1.11. In the case of `CC(C)NCC(O)COc1cccc2[nH]ccc12` (stereo not drawn) [PINDOLOL, reference compound], the Z-SCORE came out at 6.52. Turning to `CC(C)(C)NCC(O)c1cc(O)cc(O)c1` (stereo not drawn) [Terbutaline Sulfate, reference compound], the Z-SCORE is 0.15. The same measure, in the same setting: as for `Brc1c(NC2=NCCN2)ccc2nccnc12` [Brimonidine, reference compound], the figure is 0.01; as for `CC(C)N(CCC(C(N)=O)(c1ccccc1)c1ccccn1)C(C)C` (stereo not drawn) [Norpace, reference compound], 0.73. As to `N[C@@H](Cc1cc(I)c(Oc2cc(I)c(O)c(I)c2)c(I)c1)C(=O)O` [L-THYROXINE, reference compound], the Z-SCORE is -0.07. Regarding `CN[C@H]1CC[C@@H](c2ccc(Cl)c(Cl)c2)c2ccccc21` [Sertraline, reference compound], the Z-SCORE entry is “flagged”.

`Cn1cc[nH]c1=S` [Methimazole, reference compound] registered a Z-SCORE of 3.

As to `COc1ccc(OC)c(C(O)CNC(=O)CN)c1` (stereo not drawn) [Pro-Amatine, reference compound], the Z-SCORE is 0.01.

Regarding `CCn1cc(C(=O)O)c(=O)c2cc(F)c(N3CCNCC3)cc21` [NORFLOXACIN, reference compound], the Z-SCORE is reported as -0.08. The same measure, in the same setting: the result for `CCOC(=O)[C@H](CCc1ccccc1)N[C@@H](C)C(=O)N1CCC[C@H]1C(=O)O` [ENALAPRIL MALEATE, reference compound] reads 0.

`CC(C)(C(=O)O)c1ccc(C(O)CCCN2CCC(C(O)(c3ccccc3)c3ccccc3)CC2)cc1` (stereo not drawn) [Allegra, reference compound]: the Z-SCORE is reported as -0.84. For the compound `CC(=O)OCC(=O)[C@@]12OC3(CCCC3)O[C@@H]1C[C@H]1[C@@H]3CCC4=CC(=O)C=C[C@]4(C)[C@@]3(F)[C@@H](O)C[C@@]12C` [AMCINONIDE, reference compound], the Z-SCORE is given as -1.01. Compound `CC1=C(C/C=C(\C)CCC[C@H](C)CCC[C@H](C)CCCC(C)C)C(=O)c2ccccc2C1=O` [Phylloquinone, reference compound] had a Z-SCORE of -0.1. The compound `CCn1cc(C(=O)O)c(=O)c2ccc(C)nc21` [Nalidixic Acid, reference compound] yielded a Z-SCORE of 0.31. Take `COc1cc2nc(N3CCN(C(=O)C4CCCO4)CC3)nc(N)c2cc1OC` (stereo not drawn) [Terazosin, reference compound]: the Z-SCORE is given as -1.96. With `O=C1CCC(N2C(=O)c3ccccc3C2=O)C(=O)N1` (stereo not drawn) [Thalidomide, reference compound], the Z-SCORE was -0.61.

The compound `c1ccc2c(CC3=NCCN3)cccc2c1` [Albalon, reference compound] had a Z-SCORE of -0.27.
